Test system: AS4.3, AS8.2, AS8.4, and AU2.1 TCRs
Experiment: CD69 upregulation with peptide-pulsed K562 cells expressing HLA-B*27:05
Assay type: cell-based, human
Settings: SKW-3 T cells expressing AS4.3, AS8.2, AS8.4, and AU2.1 TCRs; n = 3 biological replicates

Row | Sequence | T cell response (CD69 upregulation) when peptide presented by HLA-B*27:05-expressing K562 cells
1 | GQVMVVAPR [RNASEH2B^self] | robust T cell responses
2 | LRQMLQAPH [MPP4^self] | robust T cell responses

Reference: paper PMC10511244 (Nature, 2022)
